Experimental findings from US11773188B2, “Chitosan-derived compositions” (Immunophotonics, Inc, priority 2012, dated 2023) are described below.

One data set concerns breast cancer. The protocol: In one exemplary clinical study, two breast cancer patients received cyclophosphamide weekly (after inCVAX treatment) at a dose of between 150 and 200 mg/m^2. […] The patients continued to receive the low dose chemotherapy.
Data set [1] deals with DMBA-4 transplantable, metastatic mammary tumor. Kind of data set: Different components of laser-assisted immunotherapy in metastatic breast tumor-bearing rats. The class given is in vivo, Wistar Furth rats. The following applies: 0.25% ICG injection only, 0.2 mL intratumoral; 12 rats; all rats dying.
Procedure: The laser-assisted immunotherapy system consisted of a near-infrared laser diode laser with a maximum output of 25 W; the laser-absorbing dye, indocyanine green; and the immunoadjuvant, glycated chitosan. When the primary tumor was 0.2 to 0.5 cm^3, treatment was initiated in the tumor-bearing rats. A solution of 0.2 mL of GC and/or ICG was injected into the center of the primary tumor in all groups. In rats receiving laser treatment, the injections occurred 2 h before irradiation, with animals anesthetized and the hair overlaying the tumor clipped. The laser settings were 2 W and 10 min, with the laser fiber tip maintained a distance of 4 mm from the overlying skin and the laser energy directed to the treatment sites through optical fibers. The animals were individually housed following treatment. In the survival studies, the breast or prostate tumor-bearing rats were observed daily and the three dimensions of each tumor were measured weekly. Female Wistar Furth rats (5 to 6 weeks of age, 100 to 125 g) were subcutaneously inoculated with the DMBA-4 transplantable, metastatic mammary tumor (10^5 viable tumor cells) into one inguinal fat pad of each rat. The primary tumor emerged 7 to 10 days after inoculation. […] The survival rate and primary and metastatic tumor profiles were determined for the individual components and various combinations of the components.
Data set [2] deals with Line 1 lung adenocarcinoma. As to conditions: no GC, 8 mice.
Source text: To evaluate photodynamic therapy as a the method for direct tumor destruction in combination with glycated chitosan, a combination of photofrin- and meso-substituted tetra (meta-hydroxy-phenyl) chlorin-(mTHPC) based photodynamic therapy and glycated chitosan injection was been studied in the EMT6 mammary sarcoma and Line 1 lung adenocarcinoma mouse models, respectively. In each model, BALB/c mice were subcutaneously inoculated with 10^6 viable tumor cells into the lower dorsal area. Tumors were treatment size (7 to 8 mm) after 7 days.
A 0.1 mg/kg dose of mTHPC was intravenously administered 24 h prior to irradiation. Animals were shielded from direct light immediately after the photosensitizer injection until 3 days after photodynamic treatment. Mice were restrained anaesthetized in holders exposing their backs during light treatment. A 652 nm light from a 0.25 W diode laser was delivered through an 8 mm diameter liquid light guide. The power density was set at 110 mW/cm^2, fora total light dose of 30 J/cm^2.
Another data set deals with EMT6 mammary sarcoma. Kind of data set: Photofrin-based photodynamic therapy and glycated chitosan in EMT6 model. In kind it is in vivo, BALB/c mice. As to conditions: 8 mice.
[3] abbreviates: weekly 150-200 mg/m^2 after inCVAX treatment, two breast cancer patients.

Read-outs that look alike come from different tables or passages of the source.

Procedure for EMT6 mammary sarcoma: In each model, BALB/c mice were subcutaneously inoculated with 10^6 viable tumor cells into the lower dorsal area. Tumors were treatment size (7 to 8 mm) after 7 days.
In the EMT6 mammary sarcoma model, treatment groups evaluated are detailed in the table below. Photofrin (Mont-Saint-Hilaire, Quebec, Canada) was prepared in 5% sterile dextrose to a 1 mg/mL concentration. A 5 mg/kg dose of photofrin was intravenously administered 24 h prior to irradiation. Animals were shielded from direct light immediately after the photosensitizer injection until 3 days after photodynamic treatment. Mice were restrained anaesthetized in holders exposing their backs during light treatment. Light (630 nm) was delivered through an 8 mm diameter liquid light guide. The power density was set at 100 mW/cm^2, for a total light dose of 60 J/cm^2. Immediately after light irradiation, if applicable, animals were administered a peritumoral dose of 0.5 or 1.5% glycated chitosan.

On to `CC(=O)O[C@H]1C(=O)[C@@]2(C)[C@H]([C@H](OC(=O)c3ccccc3)[C@]3(O)C[C@H](OC(=O)[C@H](O)[C@@H](NC(=O)c4ccccc4)c4ccccc4)C(C)=C1C3(C)C)[C@]1(OC(C)=O)CO[C@@H]1C[C@@H]2O` [Paclitaxel], for which the tumor response result with breast cancer (weekly 75 mg/m^2 after response to cyclophosphamide slowed) was “the response was very good with shrinking tumors”.
In the case of `O=P1(N(CCCl)CCCl)NCCCO1` (centres unmarked) [cyclophosphamide], in the data set with breast cancer (setting [3]), the adverse reactions result is recorded as “minimal adverse reactions” and the tumor response entry was “responded well to the treatment with tumor shrinkage”.
As for `CC1(C)C(/C=C/C=C/C=C/C=C2\N(CCCCS(=O)(=O)O)c3ccc4ccccc4c3C2(C)C)=[N+](CCCCS(=O)(=O)[O-])c2ccc3ccccc3c21` [indocyanine green], the “survival after single component treatment” value in data set [1] is listed as “average survival times similar to the control group”.
Turning to `Oc1cccc(-c2c3nc(c(-c4cccc(O)c4)c4ccc([nH]4)c(-c4cccc(O)c4)c4nc(c(-c5cccc(O)c5)c5ccc2[nH]5)CC4)C=C3)c1` [mTHPC, meso-substituted tetra (meta-hydroxy-phenyl) chlorin], the “Number of Long-Term Surviving Mice” value in data set [2] (Laser (652 nm, 30 J/cm^2) + mTHPC 0.1 mg/kg i.v. 24 h before) worked out at 0. In addition, the “Long-term Survival Rate” value in data set [2] (Laser + mTHPC 0.1 mg/kg i.v.) is 0.0%.
Turning to Photofrin, in the data set on EMT6 mammary sarcoma (Non-Thermal Laser + Photofrin 5 mg/kg i.v. 24 h before 630 nm light 60 J/cm^2), the “Number of Long-Term Surviving Mice” value is 3. The “Long-term Survival Rate” value with EMT6 mammary sarcoma (Non-Thermal Laser + Photofrin 5 mg/kg i.v., no GC) stood at 37.5%.
